# Laboratory results reported in PubChem BioAssay AID330 (DTP/NCI, 2004).
# Where “and” joins values, the source holds several entries; their conditions need not be identical. Equal entries are not always repeated. Inconclusive results and toxic doses are left out.
# Tested on: P388 leukemia ip, CD2F1 mice, survival T/C
# Assay: NCI In Vivo Anticancer Drug Screen. Data for tumor model P388 Leukemia (intraperitoneal) in CD2F1 (CDF1) mice
# Details: endpoint: median survival time, higher = longer survival
# Summary of the method: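 Mice carrying the transplanted tumor received test compound or vehicle. Survival was recorded in each group, and the value is the treated-group measurement divided by that of the vehicle-treated control group.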
# [1] = dose: 100.0 mg/kg/injection, schedule: Q04DX003 (ip), vehicle: saline with Tween-80
# [2] = dose: 200.0 mg/kg/injection, schedule: Q04DX003 (ip), vehicle: saline with Tween-80
# [3] = dose: 50.0 mg/kg/injection, schedule: Q01DX005 (ip), vehicle: Klucel (hydroxypropylcellulose) (HPC)
# [4] = dose: 100.0 mg/kg/injection, schedule: Q01DX005 (ip), vehicle: Klucel (hydroxypropylcellulose) (HPC)
# [5] = dose: 200.0 mg/kg/injection, schedule: Q01DX005 (ip), vehicle: Klucel (hydroxypropylcellulose) (HPC)
# [6] = dose: 50.0 mg/kg/injection, schedule: Q01DX005 (ip), vehicle: saline with Tween-80
# [7] = dose: 100.0 mg/kg/injection, schedule: Q01DX005 (ip), vehicle: saline with Tween-80
# [8] = dose: 200.0 mg/kg/injection, schedule: Q01DX005 (ip), vehicle: saline with Tween-80
# [9] = dose: 12.5 mg/kg/injection, schedule: Q01DX005 (ip), vehicle: saline with Tween-80
# [10] = dose: 25.0 mg/kg/injection, schedule: Q01DX005 (ip), vehicle: saline with Tween-80
# [11] = dose: 12.5 mg/kg/injection, schedule: Q01DX009 (ip), vehicle: Klucel (hydroxypropylcellulose) (HPC)
# [12] = dose: 25.0 mg/kg/injection, schedule: Q01DX009 (ip), vehicle: Klucel (hydroxypropylcellulose) (HPC)
# [13] = dose: 50.0 mg/kg/injection, schedule: Q01DX009 (ip), vehicle: Klucel (hydroxypropylcellulose) (HPC)
# [14] = dose: 50.0 mg/kg/injection, schedule: Q01DX009 (ip), vehicle: saline with Tween-80
# [15] = dose: 100.0 mg/kg/injection, schedule: Q01DX009 (ip), vehicle: Klucel (hydroxypropylcellulose) (HPC)
# [16] = dose: 6.25 mg/kg/injection, schedule: Q01DX005 (ip), vehicle: saline with Tween-80
smiles,measurement,setting,value
NC(CS)C(=O)NCC(=O)O (centres undefined),T/C,"dose: 50.0 mg/kg/injection, schedule: Q01DX009 (ip), vehicle: distilled water + alcohol",109 % of control
same,T/C,"dose: 100.0 mg/kg/injection, schedule: Q01DX009 (ip), vehicle: distilled water + alcohol",98 % of control
same,T/C,"dose: 200.0 mg/kg/injection, schedule: Q01DX009 (ip), vehicle: distilled water + alcohol",92 % of control
O=C(NCc1nc2ccccc2[nH]1)C(F)(F)F,T/C,"dose: 60.0 mg/kg/injection, schedule: Q01DX005 (ip), vehicle: Klucel (hydroxypropylcellulose) (HPC)",103 % of control
same,T/C,"dose: 120.0 mg/kg/injection, schedule: Q01DX005 (ip), vehicle: Klucel (hydroxypropylcellulose) (HPC)",105 % of control
same,T/C,"dose: 240.0 mg/kg/injection, schedule: Q01DX005 (ip), vehicle: Klucel (hydroxypropylcellulose) (HPC)",104 % of control
CN/N=C/c1ccc(O)c(OC)c1,T/C,[1],100 % of control
same,T/C,[2],100 % of control
same,T/C,"dose: 400.0 mg/kg/injection, schedule: Q04DX003 (ip), vehicle: saline with Tween-80",100 % of control
CC1(C)OP(=O)(O)C=C1[Se]c1ccccc1,T/C,[3],100 % of control
same,T/C,[4],102 % of control
same,T/C,[5],94 % of control
CC(C)c1cccc(C(C)C)c1NC(=O)OCCN(C)C,T/C,"dose: 60.0 mg/kg/injection, schedule: Q01DX005 (ip), vehicle: saline with Tween-80",100 % of control
same,T/C,"dose: 120.0 mg/kg/injection, schedule: Q01DX005 (ip), vehicle: saline with Tween-80",115 % of control
CCC(=O)N/C(N)=N\C(N)=S,T/C,[3],101 % of control
same,T/C,[4],96 % of control
same,T/C,[5],104 % of control
CC(C)CCC(NS(=O)(=O)c1cc(I)c(N)c(I)c1)C(=O)O (centres undefined),T/C,[6],99 % of control
same,T/C,[7],96 % of control
same,T/C,[8],103 % of control
NC1C(NO)OC(CO)C(O)C1O (centres undefined),T/C,"dose: 50.0 mg/kg/injection, schedule: Q01DX005 (ip), vehicle: saline",97 % of control
same,T/C,"dose: 100.0 mg/kg/injection, schedule: Q01DX005 (ip), vehicle: saline",96 % of control
same,T/C,"dose: 200.0 mg/kg/injection, schedule: Q01DX005 (ip), vehicle: saline",97 % of control
COC(=O)c1cc(=O)nc(N/N=C/c2ccc3c(c2)OCO3)s1,T/C,[9],99 % of control
same,T/C,[10],94 % of control
same,T/C,[6],94 % of control
c1ccc2nc3c(nc2c1)[nH]c1ccccc13,T/C,"dose: 6.25 mg/kg/injection, schedule: Q01DX009 (ip), vehicle: Klucel (hydroxypropylcellulose) (HPC)",101 % of control
same,T/C,[11],95 % of control
same,T/C,[12],103 % of control
same,T/C,[13],95 % of control
CC(C)(C)OP(=O)(NN)OC(C)(C)C,T/C,"dose: 50.0 mg/kg/injection, schedule: Q01DX009 (ip), vehicle: saline",101 % of control
same,T/C,"dose: 100.0 mg/kg/injection, schedule: Q01DX009 (ip), vehicle: saline",108 % of control
same,T/C,"dose: 200.0 mg/kg/injection, schedule: Q01DX009 (ip), vehicle: saline",99 % of control
NC(=S)N/N=C/c1ccc2c(c1)OCO2,T/C,[14],100 % of control
same,T/C,"dose: 100.0 mg/kg/injection, schedule: Q01DX009 (ip), vehicle: saline with Tween-80",100 % of control
Cc1cc(C)cc(N(C2=NCCS2)C2=NCCS2)c1,T/C,[12],106 % of control
same,T/C,[13],101 % of control
same,T/C,[15],99 % of control
same,T/C,"dose: 200.0 mg/kg/injection, schedule: Q01DX009 (ip), vehicle: Klucel (hydroxypropylcellulose) (HPC)",104 % of control
COc1cc2c(cc1OC)C(NC=O)CCC2 (centres undefined),T/C,"dose: 25.0 mg/kg/injection, schedule: Q01DX009 (ip), vehicle: other",101 % of control
same,T/C,"dose: 50.0 mg/kg/injection, schedule: Q01DX009 (ip), vehicle: other",104 % of control
same,T/C,"dose: 100.0 mg/kg/injection, schedule: Q01DX009 (ip), vehicle: other",100 % of control
same,T/C,"dose: 200.0 mg/kg/injection, schedule: Q01DX009 (ip), vehicle: other",101 % of control
same,T/C,"dose: 400.0 mg/kg/injection, schedule: Q01DX009 (ip), vehicle: other",86 % of control
C=C1C(=O)O[C@@H]2[C@H]1CC[C@H](C)[C@]1(O)CCC(=O)[C@@]21C,T/C,[11],112 % of control
same,T/C,[12],114 % of control
same,T/C,"dose: 44.0 mg/kg/injection, schedule: Q01DX009 (ip), vehicle: Klucel (hydroxypropylcellulose) (HPC)",115 % of control
same,T/C,[13],117 % of control
same,T/C,"dose: 67.0 mg/kg/injection, schedule: Q01DX009 (ip), vehicle: Klucel (hydroxypropylcellulose) (HPC)",117 % of control
same,T/C,[15],117 % of control
same,T/C,"dose: 150.0 mg/kg/injection, schedule: Q01DX009 (ip), vehicle: Klucel (hydroxypropylcellulose) (HPC)",122 % of control
C=CCOc1ccccc1N/N=C(\Cl)C(=O)OCC,T/C,"dose: 12.5 mg/kg/injection, schedule: Q01DX009 (ip), vehicle: saline with Tween-80",124 % of control
same,T/C,"dose: 25.0 mg/kg/injection, schedule: Q01DX009 (ip), vehicle: saline with Tween-80",120 % of control
same,T/C,[14],121 % of control
COc1ccc(CC2=CC(=O)C(C)=CC2=O)cc1,T/C,[16],98 % of control
same,T/C,[9],91 % of control
same,T/C,[10],97 % of control
NC(=O)C1C(C(N)=O)C2C3C=CC(C4C(=O)NC(=O)C34)C12 (centres undefined),T/C,"dose: 100.0 mg/kg/injection, schedule: Q04DX002 (ip), vehicle: saline with Tween-80",102 % of control
same,T/C,"dose: 200.0 mg/kg/injection, schedule: Q04DX002 (ip), vehicle: saline with Tween-80",109 % of control
same,T/C,"dose: 400.0 mg/kg/injection, schedule: Q04DX002 (ip), vehicle: saline with Tween-80",111 % of control
O=C(O)c1cccc2c1Oc1c(cccc1C(=O)O)S2,T/C,[6],98 % of control
same,T/C,[7],107 % of control
same,T/C,[8],108 % of control
Cc1ccc(NC(=S)C#N)cc1Cl,T/C,[16],90 % of control
same,T/C,[9],92 % of control
same,T/C,[10],90 % of control
CC1=C(C(=O)Nc2ccccc2)C(/C=C/c2ccccc2)C(C(=O)Nc2ccccc2)=C(C)N1,T/C,"dose: 25.0 mg/kg/injection, schedule: Q01DX001 (ip), vehicle: saline with Tween-80",92 % of control
same,T/C,"dose: 50.0 mg/kg/injection, schedule: Q01DX001 (ip), vehicle: saline with Tween-80",89 % of control
same,T/C,"dose: 100.0 mg/kg/injection, schedule: Q01DX001 (ip), vehicle: saline with Tween-80",96 % of control
CCCCN(C)N=Nc1c(C(N)=O)n[nH]c1C,T/C,"dose: 44.0 mg/kg/injection, schedule: Q04DX003 (ip), vehicle: saline with Tween-80",122 % of control
same,T/C,[1],150 % of control
same,T/C,[2],90 % of control
O=NNc1ccc2cc3ccc(NN=O)cc3nc2c1,T/C,"dose: 25.0 mg/kg/injection, schedule: Q01DX009 (ip), vehicle: water",122 % of control
same,T/C,"dose: 50.0 mg/kg/injection, schedule: Q01DX009 (ip), vehicle: water",106 % of control and 97 % of control
CC(=O)Oc1c([N+](=O)[O-])cccc1[N+](=O)[O-],T/C,"dose: 3.13 mg/kg/injection, schedule: Q01DX009 (ip), vehicle: distilled water + Tween-80",111 % of control
same,T/C,"dose: 6.25 mg/kg/injection, schedule: Q01DX009 (ip), vehicle: clinical formulation",100 % of control
same,T/C,"dose: 6.25 mg/kg/injection, schedule: Q01DX009 (ip), vehicle: distilled water + Tween-80",100 % of control and 112 % of control
same,T/C,"dose: 12.5 mg/kg/injection, schedule: Q01DX009 (ip), vehicle: clinical formulation",103 % of control
same,T/C,"dose: 12.5 mg/kg/injection, schedule: Q01DX009 (ip), vehicle: distilled water + Tween-80",107 % of control
same,T/C,"dose: 25.0 mg/kg/injection, schedule: Q01DX009 (ip), vehicle: clinical formulation",108 % of control
same,T/C,"dose: 25.0 mg/kg/injection, schedule: Q01DX009 (ip), vehicle: distilled water + Tween-80",107 % of control
same,T/C,"dose: 50.0 mg/kg/injection, schedule: Q01DX009 (ip), vehicle: distilled water + Tween-80",109 % of control and 115 % of control
same,T/C,"dose: 100.0 mg/kg/injection, schedule: Q01DX009 (ip), vehicle: distilled water + Tween-80",96 % of control
CC1(C)OC2C3CC(C2O1)C1C3C2(Cl)CC1(Cl)C(Cl)=C2Cl (centres undefined),T/C,[6],106 % of control
same,T/C,[7],99 % of control
same,T/C,[8],101 % of control
C(=C\c1ccnc2c1ccc1ccccc12)/c1ccccc1,T/C,[9],96 % of control
same,T/C,[10],96 % of control
same,T/C,[6],90 % of control
same,T/C,[7],88 % of control
same,T/C,[8],88 % of control
CC(c1ccc(O)cc1)c1cc2c(cc1OCCO)OCO2 (centres undefined),T/C,[6],94 % of control
same,T/C,[7],91 % of control
same,T/C,[8],92 % of control
